The first assay deals with chick dorsal root ganglia. Briefly: Chick dorsal root ganglion cultures and neurite outgrowth. Format: cell-based. Conditions: Gallus gallus; neurite outgrowth, 48 hours after drug treatment; Table II (b), ranked potency; read-out: ED50, nMa. The procedure: Dorsal root ganglia were dissected from chick embryos of ten day gestation. Whole ganglion explants were cultured on thin layer Matrigel-coated 12 well plates with Liebovitz L15 plus high glucose media supplemented with 2 mM glutamine and 10% fetal calf serum, and also containing 10 μM cytosine β-D arabinofuranoside (Ara C) at 37° C. in an environment containing 5% CO2. Twenty-four hours later, the DRGs were treated with various immunophilin ligands. Forty-eight hours after drug treatment, the ganglia were visualized under phase contrast or Hoffman Modulation contrast with a Zeiss Axiovert inverted microscope. Photomicrographs of the explants were made, and neurite outgrowth was quantitated. Neurites longer than the DRG diameter were counted as positive, with total number of neurites quantitated per each experimental condition. Three to four DRGs are cultured per well, and each treatment was performed in duplicate.
The data for these experiments for representative compounds are presented in Table II under the column “ED50”.
In the case of `CCC(C)CNC(=O)N1CCC[C@H]1C(=O)SCCCc1cccnc1` (stereo partly drawn) [Compound 1, 3-(3-Pyridyl)-1-propylmercaptyl 2S-1-[(2-methylbutyl)carbamoyl]pyrrolidine-2-carboxylate], the EC50 is < 1 nM.

In the case of `CCC(C)(C)NC(=O)N1CCC[C@H]1C(=O)SCCCc1cccnc1` [Compound 2], the EC50 is 1 to 50 nM.

The same assay, now with this note: neurite outgrowth, 48 hours after drug treatment; Table II (b), ranked potency; read-out: ED50, nMa.
On to “3,3-Diphenylpropyl (2S)-1-[(1,1,3,3-tetramethylbutyl)carbamoyl]-2-pyrrolidinecarbothioate [Compound 29]”, for which the EC50 was 51 to 200 nM.

With “3-(2,3,5-Trimethylphenyl)propyl 1-(1-adamantylcarbamoyl)-2-pyrrolidinecarbothioate [Compound 19]”, the EC50 was in the range of 51 to 200 nM.

With “3-(2,3,5-Trimethylphenyl)propyl 1-(cyclohexylcarbamoyl)-2-pyrrolidinecarbothioate [Compound 20]”, the EC50 lay within 1 to 50 nM.

Regarding “3-(2-Fluorophenyl)propyl (2S)-1-(1-adamantylcarbamoyl)-2-pyrrolidinecarbothioate [Compound 22]”, the EC50 is < 1 nM.

Take “3-(2-Fluorophenyl)propyl (2S)-1-(cyclohexylcarbamoyl)-2-pyrrolidinecarbothioate [Compound 23]”: the EC50 lay within 1 to 50 nM.

Turning to “3-(3,5-Dimethoxyphenyl)propyl (2S)-1-{[(1S)-1-(1-naphthyl)ethyl]-carbamoyl}-2-pyrrolidinecarbothioate [Compound 28]”, the EC50 is < 1 nM.

Consider “3-(3-Fluorophenyl)propyl (2S)-1-(Cyclohexylcarbamoyl)-2-pyrrolidinecarbothioate [Compound 21]”, for which the EC50 is < 1 nM.

Turning to “3-(4-Methylphenyl)propyl (2S)-1-(1-adamantylcarbamoyl)-2-pyrrolidinecarbothioate [Compound 25]”, the EC50 fell in the range of 1 to 50 nM.

As to “3-(4-Methylphenyl)propyl (2S)-1-(cyclohexylcarbamoyl)-2-pyrrolidinecarbothioate [Compound 24]”, the EC50 was 1 to 50 nM.

On to “3-(4-Methylphenyl)propyl (2S)-1-(tert-butylcarbamoyl)-2-pyrrolidinecarbothioate [Compound 26]”, for which the EC50 was < 1 nM.

“3-Phenylpropyl (2S)-1-(1-cyclohexylcarbamoyl)-2-pyrrolidinecarbothioate [Compound 17]”: the EC50 fell in the range of 51 to 200 nM.

On to `O=C(SCCCc1cccnc1)[C@@H]1CCCN1C(=S)NC1CCCCC1` [Compound 7, 3-(3-pyridyl)-1-propylmercaptyl 2S-1-[(cyclohexyl)thiocarbamoyl]-pyrrolidine-2-carboxylate], for which the EC50 fell in the range of 1 to 50 nM.

In the case of `O=C(SCCCc1ccccc1Cl)[C@@H]1CCCN1C(=O)NC1CCCCC1` [Compound 27], the EC50 was in the range of 1 to 50 nM.

For the compound “Phenethyl (2S)-N-(cyclohexylcarbamoyl)-2-pyrrolidinecarbothioate [Compound 18]”, the EC50 was 1 to 50 nM.

For the next assay, the target named is FKBP (Homo sapiens, UniProt P62942). In words: Ki test procedure: inhibition of peptidyl-prolyl isomerase (rotamase) activity, chymotrypsin-coupled assay. It is filed as biochemical. Conditions: apparent Ki, Table II (a), ranked potency. The text has this: Inhibition of the peptidyl-prolyl isomerase (rotamase) activity of the inventive compounds can be evaluated by known methods described in the literature (Harding, et al., Nature, 1989, 341:758-760; Holt et al. J. Am. Chem. Soc., 115:9923-9938). The cis-trans isomerization of an alanine-proline bond in a model substrate, N-succinyl-Ala-Ala-Pro-Phe-p-nitroanilide, is monitored spectrophotometrically in a chymotrypsin-coupled assay, which releases para-nitroanilide from the trans form of the substrate. The inhibition of this reaction caused by the addition of different concentrations of inhibitor is determined, and the data is analyzed as a change in first-order rate constant as a function of inhibitor concentration to yield the apparent Ki values.
Chain of FKBP (P62942 whole entry): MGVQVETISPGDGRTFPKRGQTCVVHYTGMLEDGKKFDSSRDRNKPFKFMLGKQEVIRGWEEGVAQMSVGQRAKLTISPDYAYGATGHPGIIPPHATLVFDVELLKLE
In a plastic cuvette are added […] of ice cold assay buffer (25 mM HEPES, pH 7.8, 100 mM NaCl), […] of FKBP (2.5 mM in 10 mM Tris-Cl pH 7.5, 100 mM NaCl, 1 mM dithiothreitol), 25 mL of chymotrypsin (50 mg/ml in 1 mM HCl) and […] of test compound at various concentrations in dimethyl sulfoxide. The reaction is initiated by the addition of 5 mL of substrate (succinyl-Ala-Phe-Pro-Phe-para-nitroanilide, 5 mg/mL in 2.35 mM LiCl in trifluoroethanol).
The absorbance at 390 nm versus time is monitored for 90 seconds using a spectrophotometer and the rate constants are determined from the absorbance versus time data files.
The data for these experiments for representative compounds are presented in Table II under the column “Ki”.
As to “3,3-Diphenylpropyl (2S)-1-[(2,4-dimethoxyphenyl)carbamoyl]-2-pyrrolidinecarbothioate [Compound 33]”, the Ki was > 500 nM.

On to “3-(2,3,5-Trimethylphenyl)propyl 1-(1-adamantylcarbamoyl)-2-pyrrolidinecarbothioate [Compound 19]”, for which the Ki lay within 201 to 500 nM.

Regarding “3-(2,3,5-Trimethylphenyl)propyl 1-(cyclohexylcarbamoyl)-2-pyrrolidinecarbothioate [Compound 20]”, the Ki lay in the range of 51 to 200 nM.

For “3-(2-Fluorophenyl)propyl (2S)-1-(1-adamantylcarbamoyl)-2-pyrrolidinecarbothioate [Compound 22]”, the Ki fell in the range of 1 to 50 nM.

Take “3-(2-Fluorophenyl)propyl (2S)-1-(cyclohexylcarbamoyl)-2-pyrrolidinecarbothioate [Compound 23]”: the Ki was 1 to 50 nM.

“3-(3,5-Dimethoxyphenyl)propyl (2S)-1-{[(1S,2R)-2-phenyl-cyclopropyl]carbamoyl]-2-pyrrolidinecarbothioate [Compound 34]”: the Ki was > 500 nM.

Regarding “3-(3-Fluorophenyl)propyl (2S)-1-(Cyclohexylcarbamoyl)-2-pyrrolidinecarbothioate [Compound 21]”, the Ki was 1 to 50 nM.

In the case of “3-Cyclohexylpropyl (2S)-1-(hexylcarbamoyl)-2-pyrrolidinecarbothioate [Compound 32]”, the Ki is > 500 nM.

Take “3-Cyclohexylpropyl (2S)-1-[(2,6-diisopropylphenyl)carbamoyl]-2-pyrrolidinecarbothioate [Compound 31]”: the Ki was > 500 nM.

In the case of “3-Phenylpropyl (2S)-1-(1-adamantylcarbamoyl)-2-pyrrolidinecarbothioate [Compound 36]”, the Ki lay in the range of 201 to 500 nM.

As for “3-Phenylpropyl (2S)-1-[(2,4-Dimethoxyphenyl)carbamoyl]-2-pyrrolidinecarbothioate [Compound 35]”, the Ki was > 500 nM.

`CCC(C)CNC(=O)N1CCC[C@H]1C(=O)SCCCc1cccnc1` (stereo partly drawn) [Compound 1, 3-(3-Pyridyl)-1-propylmercaptyl 2S-1-[(2-methylbutyl)carbamoyl]pyrrolidine-2-carboxylate]: the Ki fell in the range of 1 to 50 nM.

Consider `CCC(C)(C)NC(=O)N1CCC[C@H]1C(=O)SCCCc1cccnc1` [Compound 2], for which the Ki was in the range of 51 to 200 nM.

For the compound `O=C(SCCCc1cccnc1)[C@@H]1CCCN1C(=S)NC1CCCCC1` [Compound 7, 3-(3-pyridyl)-1-propylmercaptyl 2S-1-[(cyclohexyl)thiocarbamoyl]-pyrrolidine-2-carboxylate], the Ki lay within 51 to 200 nM.

For the compound “Phenethyl (2S)-N-(cyclohexylcarbamoyl)-2-pyrrolidinecarbothioate [Compound 18]”, the Ki was in the range of 51 to 200 nM.

The same assay, now with this note: apparent Ki, Table II (a), ranked potency, listed as 4.
In the case of “3-Phenylpropyl (2S)-1-(1-cyclohexylcarbamoyl)-2-pyrrolidinecarbothioate [Compound 17]”, the Ki fell in the range of 51 to 200 nM.

The assay is the same for the next values; noted with them: apparent Ki, Table II (a), ranked potency, listed as 23.
On to “3-Phenylpropyl (2S)-1-(1-cyclohexylcarbamoyl)-2-pyrrolidinecarbothioate [Compound 37]”, for which the Ki was > 500 nM.

The same assay, now with this note: apparent Ki, Table II (c), numerical.
As for “3,3-Diphenylpropyl (2S)-1-[(1,1,3,3-tetramethylbutyl)carbamoyl]-2-pyrrolidinecarbothioate [Compound 29]”, the Ki turned out to be 5150 nM.

On to “3-(3,4,5-Trimethoxyphenyl)propyl (2S)-1-(benzylcarbamoyl)-2-pyrrolidinecarbothioate [Compound 40]”, for which the Ki was determined as 82 nM.

Consider “3-(3,4,5-Trimethoxyphenyl)propyl (2S)-1-(hexylcarbamoyl)-2-pyrrolidinecarbothioate [Compound 39]”, for which the Ki turned out to be 31 nM.

As for “3-(3,5-Dimethoxyphenyl)propyl (2S)-1-{[(1S)-1-(1-naphthyl)ethyl]-carbamoyl}-2-pyrrolidinecarbothioate [Compound 28]”, the Ki was 8090 nM.

With “3-(4-Methylphenyl)propyl (2S)-1-(1-adamantylcarbamoyl)-2-pyrrolidinecarbothioate [Compound 25]”, the Ki amounted to 209 nM.

As for “3-(4-Methylphenyl)propyl (2S)-1-(cyclohexylcarbamoyl)-2-pyrrolidinecarbothioate [Compound 24]”, the Ki worked out at 605 nM.

As for “3-(4-Methylphenyl)propyl (2S)-1-(tert-butylcarbamoyl)-2-pyrrolidinecarbothioate [Compound 26]”, the Ki turned out to be 739 nM.

As for “3-Phenylpropyl (2S)-1-(1-pyrrolidinylcarbamoyl)-2-pyrrolidinecarbothioate [Compound 42]”, the Ki is 525 nM.

With “3-Phenylpropyl (2S)-1-(dimethylcarbamoyl)-2-pyrrolidinecarbothioate [Compound 41]”, the Ki turned out to be 722 nM.

For the compound `O=C(SCCCc1ccccc1Cl)[C@@H]1CCCN1C(=O)NC1CCCCC1` [Compound 27], the Ki was found to be 1490 nM.

As for `O=C(SCCCc1ccccc1)[C@@H]1CCCN1C(=S)NC12CC3CC(CC(C3)C1)C2` [Compound 38], the Ki was found to be 659 nM.

Regarding `O=C(SCCCc1ccccc1)[C@@H]1CCCN1C(=O)N1CCOCC1` [Compound 43, 3-Phenylpropyl (2S)-1-(morphilinocarbamoyl)-2-pyrrolidinecarbothioate], the Ki worked out at 3740 nM.

The assay is the same for the next values; noted with them: apparent Ki, Table II (c), numerical, listed as 21.
In the case of “3-Phenylpropyl (2S)-1-[(2,4-Dimethoxyphenyl)carbamoyl]-2-pyrrolidinecarbothioate [Compound 35]”, the Ki came out at 795 nM.
